# Reference: patent US20260042816A1, “TYROSINE KINASE INHIBITOR AND ACTIVIN TYPE 2 RECEPTOR ANTAGONIST COMBINATION THERAPY FOR TREATING PULMONARY ARTERIAL HYPERTENSION (PAH)” (GB002, INC., priority 2022, published 2026)
# What was measured:
# [1] = test system: SuHx-mediated (SU5416 plus hypoxia) pulmonary hypertension; assay: SuHx (SU5416 plus hypoxia) rat model of PAH; assay type: in vivo, male Sprague Dawley rats; settings: for decrease in Fulton's Index (RV hypertrophy measurement) / decrease in PVR Index / decrease in RVSP / decrease in mPAP: normalized to vehicle (1) and normal controls (0), day 49, after 4 weeks of treatment, Seralutinib 15 mg/kg inhalation BID and/or Sotatercept (as RAP-011) 5 mg/kg SC 2x/week; for lung histology (hematoxylin and eosin), pulmonary vessels: representative images, FIG. 2
# Protocol: PAH was induced in animal by a administering a single injection SU5416 (20 mg/kg) on day 0, followed by exposure of animals to hypoxia (10% oxygen) for 21 days. SuHx rats were divided in four groups and treated with i) Control: Seralutinib vehicle inhalation+Sotatercept vehicle injection (grey bar) or ii) Seralutinib 15 mg/kg, by inhalation, twice daily+Sotatercept vehicle, subcutaneous injection, twice a week (bar with horizontal pattern) or iii) Sotatercept 5 mg/kg subcutaneous injection, twice a week+Seralutinib vehicle, by inhalation, twice daily (bar with vertical line pattern) or iv) Seralutinib 15 mg/kg, by inhalation, twice daily+Sotatercept 5 mg/kg subcutaneous injection, twice a week (white bar); normoxia animals were used a healthy controls. Bar graph showing individual normalized data point for (A) Right ventricular systolic pressure (RVSP) (FIG. 1A), (B) mean pulmonary artery pressure (mPAP) (FIG. 1B), (C) right ventricular hypertrophy measured by fulton's index (FIG. 1C), and PVR index (FIG. 1D).
# SuHx-mediated (SU5416 plus hypoxia) pulmonary hypertension was induced in male Sprague Dawley rats (see “Inhibition of the VEGF receptor 2 combined with chronic hypoxia causes cell death-dependent pulmonary endothelial cell proliferation and severe pulmonary hypertension”, Taraseviciene-Stewart et. al., FASEB J, 2001, 15, 427-438 and “TORREY, a Phase 2 study to evaluate the efficacy and safety of inhaled seralutinib for the treatment of pulmonary arterial hypertension”, Frantz R P, et. al., Pulmonary Circulation 2021; 11(4), 1-7). Semaxanib (SU5416) was administered to rats weighing 200-250 g as a single subcutaneous injection (20 mg/kg). Rats were housed for 3 weeks in 10% oxygen and subsequently re-exposed to normoxia during 4-week treatment period.
# Rats underwent treatment for four weeks as described above, with treatment starting on day 22, after disease induction. After 4 weeks of treatment, the following parameters were evaluated: right ventricular systolic pressure (RVSP); Fulton index (weight ratio of right ventricle to the left ventricle and septum); and mean pulmonary arterial pressure (mPAP).
# Animals from (Group 2-5) received a single subcutaneous injection of SU5416 (20 mg/kg) on Day 0 and exposed to hypoxia (10% O2) for 21 days followed by 4 weeks of normoxia. Group 1 animals (healthy group) remained in cages exposed to ambient oxygen (normoxic) levels for 49 days. Food and water were given ad libitum.
# Treatment with inhaled seralutinib or vehicle, RAP-011 or mIgG2A was as described in Table 2.
# Briefly, treatment with the aerosolized Seralutinib or vehicle was administrated for 45 minutes BID for 4 weeks starting day 22 (as outlined in Table 1) at an estimated dose to 15 mg/kg/dose using a Vilnius Aerosol Generator connected to an inhalation tower. The powder concentration was continuously monitored by portable aerosol monitor. Mercer-style cascade impactor was used to perform aerodynamic particle size distribution measurements. RAP-011 or mIgG was administered at 5 mg/kg dose via SC injection twice a week for 4 weeks starting day 22 as described in Table 2.
# An echocardiogram monitoring of the progression of the disease was carried out on Day 21 (before treatment) and on surgery day (Day 49) for all groups. The results of the echocardiogram, from Day 21, was used to randomize the animals to ensure that only animals with severe enough disease are selected and that there is a similar disease stage across all groups.
# On day 49, after 4 weeks of treatment, end of study procedures was performed: mean pulmonary arterial pressure (mPAP) and right ventricle systolic pressure (RVSP) were measured via an intra-ventricular fluid-filled catheter from AD instruments. Mean pulmonary arterial blood pressure values by using the formula mPAP=Diastolic Pressure+(Systolic Pressure−Diastolic Pressure)/3.
# [2] = test system: severe PAH in two animal models; settings: cited from earlier work
# PAH patients = settings: patients treated with standard-of-care therapies; cited from earlier work
compound,measurement,setting,value
"COc1ccc(-c2cncc(N[C@@H](C)c3cccc(NC(=O)c4cncc(C)c4)c3)n2)cc1OC [Seralutinib, N-{3-[(1S)-1-{[6-(3,4-dimethoxyphenyl)pyrazin-2-yl]amino}ethyl]phenyl}-5-methylpyridine-3-carboxamide]",decrease in Fulton's Index (RV hypertrophy measurement),[1],9%
same,decrease in PVR Index,[1],26%
same,decrease in RVSP,[1],13%
same,decrease in mPAP,[1],23%
same,"lung histology (hematoxylin and eosin), pulmonary vessels",[1],non-occluded pulmonary vessels similar to the healthy group
same,efficacy compared to imatinib,[2]; preclinical study,greater efficacy compared to imatinib
same,efficacy of inhaled seralutinib in animal models of severe PAH,"[2]; two animal models, improved hemodynamics, reduced NT-proBNP, reverse remodeling",effective treatment of severe PAH
Sotatercept: soluble fusion protein composed of the extracellular domain of the activin receptor type IIA (ActR IIA) linked to the Fc portion of human IgG1 [reference compound],clinical effect in PAH patients,PAH patients,beneficial effects
same,decrease in Fulton's Index (RV hypertrophy measurement),[1],15%
same,decrease in PVR Index,[1],25%
same,decrease in RVSP,[1],31%
same,decrease in mPAP,[1],28%
same,"lung histology (hematoxylin and eosin), pulmonary vessels",[1],non-occluded pulmonary vessels similar to the healthy group
